Measured values published in PMC4774972, “Activity and Predicted Nephrotoxicity of Synthetic Antibiotics Based on Polymyxin B” (Journal of Medicinal Chemistry, 2016).
Values after ≈ are worked out from the molar mass of the structure shown. Bridge positions count the residues as written; N and C are the ends. Square brackets hold non-standard residues; d marks the D form. Peptide text beside a SMILES is read from it. * marks the point of attachment. Bip = N[C@@H](Cc1ccc(-c2ccccc2)cc1)C(=O)O; dBip = N[C@H](Cc1ccc(-c2ccccc2)cc1)C(=O)O; Gly(octyl) = CCCCCCCC[C@H](N)C(=O)O; Octanoyl = CCCCCCCC(=O)*; Dab = NCC[C@H](N)C(=O)O

Key:
[1] = tested on: A. baumannii CI Ptyela 100734512:2, PmxR; details: MIC A. baumannii CI Ptyela 100734512:2, PmxR (µg/mL)
[2] = tested on: K. pneumoniae CI 138-16357-20362, PmxR; details: MIC K. pneumoniae CI 138-16357-20362, PmxR (µg/mL)
[3] = tested on: P. aeruginosa PA9704, PmxR; details: MIC P. aeruginosa PA9704, PmxR (µg/mL)
[4] = tested on: S. aureus ATCC 25923, MSSA; details: MIC S. aureus ATCC 25923, MSSA (µg/mL)
[5] = tested on: K. pneumoniae CI Koprana 100650661:1, PmxR; details: MIC K. pneumoniae CI Koprana 100650661:1, PmxR (µg/mL)
[6] = tested on: P. aeruginosa FADDI-PA070, PmxR; details: MIC P. aeruginosa FADDI-PA070, PmxR (µg/mL)
HepG2 = details: CC50 HepG2 (µM)
[7] = tested on: K. pneumoniae CI 138-16357-20362, PmxR; assay: microbe, parasite or virus in culture; assay type: cell-based, Klebsiella pneumoniae; details: carbapenem & polymyxin resistant clinical isolate; MHB, 5 × 10^5 CFU/mL, 18 h at 37 °C
Procedure: (§1) Bacteria were either obtained from American Type Culture Collection (ATCC; Manassas, VA, USA) or independent academic clinical isolate collections, as listed in Table S2. Bacteria were cultured in nutrient broth (NB; Bacto Laboratories, catalog no. 234000) or Muller Hinton broth (MHB; Bacto Laboratories, catalog no. 211443) at 37 °C overnight with shaking (∼180 rpm). A sample of each culture was then diluted 50-fold in fresh MHB and incubated at 37 °C for 1.5–3 h with shaking (∼180 rpm). Compound stock solutions were prepared as 0.64 or 2.56 mg/mL in water. The compounds, at twice the final desired concentration, were serially diluted 2-fold across the wells of 96-well plates (Polystyrene, Corning, catalogue No. 3370). Mid log phase bacterial cultures (after 1.5–3 h incubation) were diluted to a final concentration of 5 × 10^5 colony forming units (CFU)/mL, and 50 μL was added to each well giving a final compound concentration range of 32 μg/mL to 0.015 μg/mL (128–0.06 μg/mL for colistin and polymyxin B against the polymyxin resistant clinical isolates). MICs were determined visually after 18 h of incubation at 37 °C, with the MIC defined as the lowest compound concentration at which no bacterial growth was visible.
(§2) Table S2. Bacterial strains used for Minimum Inhibitory Concentration (MIC) […]
(§3) Organism Strain Strain description Strain Source
(§4) Escherichia coli ATCC 25922 FDA strain Seattle 1946 ATCC
(§5) Klebsiella pneumoniae ATCC 13883 Control strain ATCC
(§6) Klebsiella pneumoniae ATCC 700603 Multi-drug resistant ATCC
(§7) Klebsiella pneumoniae BAA-2146 Metallo-beta-lactamase- ATCC
(§8) Acinetobacter baumannii ATCC 19606 Type strain ATCC
(§9) Pseudomonas aeruginosa ATCC 27853 Type strain ATCC
(§10) Pseudomonas aeruginosa FADDI-PA070 Clinical isolate, Nation and Li labs, polymyxin resistant Monash University
(§11) Clinical isolate, Wang Hengzhuang, Pseudomonas aeruginosa PA9704 polymyxin resistant University Hospital of […]
(§12) Ptyela Clinical isolate, Ilias Karaiskos and Acinetobacter baumannii Carbapenem & Helen Giamarellou
(§13) Clinical isolate, Medicine, Hygeia
(§14) Klebsiella pneumoniae Koprana Carbapenem, & General Hospital, […]
(§15) Clinical isolate, (Instituto Dante […]
(§16) polymyxin resistant Cardiologia, São […]

[8] = tested on: K. pneumoniae CI Koprana 100650661:1, PmxR; assay: microbe, parasite or virus in culture; assay type: cell-based, Klebsiella pneumoniae; details: carbapenem & polymyxin resistant clinical isolate; MHB, 5 × 10^5 CFU/mL, 18 h at 37 °C
Procedure: as §1, §2, §3, §4, §5, §6, §7, §8, §9, §10, §11, §12, §13, §14, §15, §16

K. pneumoniae ATCC 13883 = details: MIC K. pneumoniae ATCC 13883 (µg/mL)

| Structure (SMILES) | MIC [1] | MIC [2] | MIC [3] | MIC [4] | MIC [5] | MIC [6] | CC50 (HepG2) | MIC K. pneumoniae CI 138-16357-20362, PmxR [7] | MIC K. pneumoniae CI Koprana 100650661:1, PmxR [8] | MIC (K. pneumoniae ATCC 13883) |
| --- | --- | --- | --- | --- | --- | --- | --- | --- | --- | --- |
| CCCCCCCC(=O)N[C@H](C(=O)N[C@@H](CCN)C(=O)N[C@H]1CCNC(=O)[C@H]([C@@H](C)O)NC(=O)[C@H](CCN)NC(=O)[C@H](CCN)NC(=O)[C@H](CC(C)C)NC(=O)[C@@H](Cc2ccccc2)NC(=O)[C@H](CCN)NC1=O)[C@@H](C)O [Compound 12] (Octanoyl-T[Dab][Dab][Dab][dF]L[Dab][Dab]T; lactam 3-C) | > 32 µg/mL | > 32 µg/mL | > 32 µg/mL | > 32 µg/mL | > 32 µg/mL | > 32 µg/mL | > 300 µM | >32 µg/mL | >32 µg/mL |  |
| CCCCCCCC(=O)N[C@@H](CCN)C(=O)N[C@H](C(=O)N[C@@H](CCN)C(=O)N[C@H]1CCNC(=O)[C@H]([C@@H](C)O)NC(=O)[C@H](CCN)NC(=O)[C@H](CCCNC(=N)N)NC(=O)[C@H](CC(C)C)NC(=O)[C@@H](Cc2ccccc2)NC(=O)[C@H](CCN)NC1=O)[C@@H](C)O [Compound 26] |  | > 32 µg/mL | > 32 µg/mL | > 32 µg/mL | > 32 µg/mL |  |  | >32 µg/mL | >32 µg/mL |  |
| CCCCCCCC(=O)N[C@@H](CCN)C(=O)N[C@H](C(=O)N[C@@H](CCN)C(=O)N[C@H]1CCNC(=O)[C@H]([C@@H](C)O)NC(=O)[C@H](CCN)NC(=O)[C@H](Cc2ccc(N)cc2)NC(=O)[C@H](CC(C)C)NC(=O)[C@@H](Cc2ccccc2)NC(=O)[C@H](CCN)NC1=O)[C@@H](C)O [Compound 25] | > 32 µg/mL | > 32 µg/mL | > 32 µg/mL | > 32 µg/mL | > 32 µg/mL |  |  | >32 µg/mL | >32 µg/mL |  |
| CCCCCCCC(=O)N[C@@H](CCN)C(=O)N[C@H](C(=O)N[C@@H](CCN)C(=O)N[C@H]1CCNC(=O)[C@H]([C@@H](C)O)NC(=O)[C@H](CCN)NC(=O)[C@H](CCN)NC(=O)[C@H](CC(C)C)NC(=O)[C@@H](Cc2ccc(-c3ccccc3)cc2)NC(=O)[C@H](CCN)NC1=O)[C@@H](C)O (Octanoyl-[Dab]T[Dab][Dab][Dab][dBip]L[Dab][Dab]T; lactam 4-C) |  |  |  |  |  |  | 119 µM |  |  |  |
| CCCCCCCC(=O)N[C@@H](CCN)C(=O)N[C@H](C(=O)N[C@@H](CCN)C(=O)N[C@H]1CCNC(=O)[C@H]([C@@H](C)O)NC(=O)[C@H](CCCNC(=N)N)NC(=O)[C@H](CCN)NC(=O)[C@H](CC(C)C)NC(=O)[C@@H](Cc2ccccc2)NC(=O)[C@H](CCN)NC1=O)[C@@H](C)O [Compound 21] (Octanoyl-[Dab]T[Dab][Dab][Dab][dF]L[Dab]RT; lactam 4-C) | > 32 µg/mL | > 32 µg/mL | > 32 µg/mL | > 32 µg/mL | > 32 µg/mL | > 32 µg/mL | > 300 µM | >32 µg/mL | >32 µg/mL | > 32 µg/mL |
| CCCCCCCC[C@@H]1NC(=O)[C@@H](Cc2ccccc2)NC(=O)[C@H](CCN)NC(=O)[C@@H](NC(=O)[C@H](CCN)NC(=O)[C@@H](NC(=O)[C@H](CCN)NC(=O)CCCCCCC)[C@@H](C)O)CCNC(=O)[C@H]([C@@H](C)O)NC(=O)[C@H](CCN)NC(=O)[C@H](CCN)NC1=O (Octanoyl-[Dab]T[Dab][Dab][Dab][dF][Gly(octyl)][Dab][Dab]T; lactam 4-C) | 8 µg/mL (≈ 6.42 µM) | 32 µg/mL (≈ 25.7 µM) | 8 µg/mL (≈ 6.42 µM) | 8 µg/mL (≈ 6.42 µM) | 32 µg/mL (≈ 25.7 µM) | 16 µg/mL (≈ 12.8 µM) | 116 µM |  |  |  |
| CCCCCCCC(=O)N[C@@H](CCN)C(=O)N[C@H](C(=O)N[C@@H](CCN)C(=O)N[C@H]1CCNC(=O)[C@H]([C@@H](C)O)NC(=O)[C@H](CCN)NC(=O)[C@H](CCN)NC(=O)[C@H](CC(C)C)NC(=O)[C@@H](Cc2ccccc2)NC(=O)[C@H](CCNC(=O)[C@@H](N)CCCNC(=N)N)NC1=O)[C@@H](C)O [Compound 31] (Octanoyl-[Dab]T[Dab][Dab][Dab](Arg)[dF]L[Dab][Dab]T; lactam 4-C) | > 32 µg/mL | > 32 µg/mL | > 32 µg/mL | > 32 µg/mL | > 32 µg/mL | > 32 µg/mL | > 300 µM | >32 µg/mL | >32 µg/mL |  |
| CCCCCCCC(=O)N[C@@H](CCN)C(=O)N[C@H](C(=O)N[C@@H](CCN)C(=O)N[C@H]1CCNC(=O)[C@H]([C@@H](C)O)NC(=O)[C@H](CCNC(=O)[C@@H](N)CCCNC(=N)N)NC(=O)[C@H](CCN)NC(=O)[C@H](CC(C)C)NC(=O)[C@@H](Cc2ccccc2)NC(=O)[C@H](CCN)NC1=O)[C@@H](C)O [Compound 18] (Octanoyl-[Dab]T[Dab][Dab][Dab][dF]L[Dab][Dab](Arg)T; lactam 4-C) | > 32 µg/mL | > 32 µg/mL | > 32 µg/mL | > 32 µg/mL | > 32 µg/mL | > 32 µg/mL | > 300 µM | >32 µg/mL | >32 µg/mL |  |
| CCCCCCCC(=O)N[C@@H](CCN)C(=O)N[C@H](C(=O)N[C@@H](CCN)C(=O)N[C@H]1CCNC(=O)[C@H]([C@@H](C)O)NC(=O)[C@H](CCNC(=O)[C@@H](N)CCC(=O)O)NC(=O)[C@H](CCN)NC(=O)[C@H](CC(C)C)NC(=O)[C@@H](Cc2ccccc2)NC(=O)[C@H](CCN)NC1=O)[C@@H](C)O [Compound 19] (Octanoyl-[Dab]T[Dab][Dab][Dab][dF]L[Dab][Dab](Glu)T; lactam 4-C) | > 32 µg/mL | > 32 µg/mL | > 32 µg/mL | > 32 µg/mL | > 32 µg/mL | > 32 µg/mL | > 300 µM | >32 µg/mL | >32 µg/mL |  |
| CCCCCCCC(=O)N[C@@H](CCN)C(=O)N[C@H](C(=O)N[C@@H](CCN)C(=O)N[C@H]1CCNC(=O)[C@H]([C@@H](C)O)NC(=O)[C@H](CCN)NC(=O)[C@H](CCNC(=O)[C@@H](N)CCCNC(=N)N)NC(=O)[C@H](CC(C)C)NC(=O)[C@@H](Cc2ccccc2)NC(=O)[C@H](CCN)NC1=O)[C@@H](C)O [Compound 22] | > 32 µg/mL | > 32 µg/mL | > 32 µg/mL | > 32 µg/mL | > 32 µg/mL | > 32 µg/mL |  | >32 µg/mL | >32 µg/mL |  |
| CCCCCCCC(=O)N[C@@H](CCN)C(=O)N[C@H](C(=O)N[C@H](CO)C(=O)N[C@H]1CCNC(=O)[C@H]([C@@H](C)O)NC(=O)[C@H](CCN)NC(=O)[C@H](CCN)NC(=O)[C@H](CC(C)C)NC(=O)[C@@H](Cc2ccccc2)NC(=O)[C@H](CCN)NC1=O)[C@@H](C)O [Compound 37] (Octanoyl-[Dab]T[dS][Dab][Dab][dF]L[Dab][Dab]T; lactam 4-C) | > 32 µg/mL | > 32 µg/mL | > 32 µg/mL | > 32 µg/mL | > 32 µg/mL | > 32 µg/mL | > 300 µM | >32 µg/mL | >32 µg/mL |  |
| CCCCCCCC(=O)N[C@@H](CCN)C(=O)N[C@H](C(=O)N[C@@H](CCN)C(=O)N[C@H]1CCNC(=O)[C@H]([C@@H](C)O)NC(=O)[C@H](CCN)NC(=O)[C@H](CCN)NC(=O)[C@H](Cc2ccc(-c3ccccc3)cc2)NC(=O)[C@@H](Cc2ccccc2)NC(=O)[C@H](CCN)NC1=O)[C@@H](C)O (Octanoyl-[Dab]T[Dab][Dab][Dab][dF][Bip][Dab][Dab]T; lactam 4-C) |  | > 32 µg/mL |  |  |  |  | 117 µM |  |  |  |
